Molecular target: purified αvβ3 (Homo sapiens, UniProt P05106+P06756)
Assay: Binding affinity to purified αvβ3 (fibrinogen-coated plate, IC50)
Details: purified αvβ3, fibrinogen-coated plates, 2 hours room temperature
Procedure: The binding affinity of exemplary compounds is show in FIG. 11A, including P-bi-TET and m-P-mono-TET (both having n=36). The method was as follows: The binding affinity of P-bi-TET and m-P-mono-TET to purified αvβ3 was measured using the method described by Li, W., et al., Pharmacokinetics, Biodistribution, and Anti-Angiogenesis Efficacy of Diamino Propane Tetraiodothyroacetic Acid-conjugated Biodegradable Polymeric Nanoparticle. Sci Rep, 2019. 9(1): p. 9006. Ninety-six polystyrene microtiter plates coated with fibrinogen and incubated at 4° C. overnight. The wells were blocked with 3% BSA for 2 hours at room temperature and were washed with buffer A (50 mM Tris/HCl, 100 mM NaCl, 1 mM CaCl2), 1 mM MgCl2, 1% BSA) for three times. Integrins αvβ3 and increasing concentrations of P-bi-TET or m-P-mono-TET were added and incubated for 2 hours at room temperature, and then wells were washed three times with buffer A and incubated with a streptavidin HRP conjugate (1:1000 in buffer A) for 1 hour at room temperature. Finally, wells were washed three times with buffer A and 100 μL peroxidase substrate TMB was added, and the reaction was terminated after 30 minutes with 50 μL of 450 nm stop solution for TMB. Absorbance was determined at 450 nm with a Microplate Reader (Bio-Rad, Hercules, Calif., USA). […]

Chain of purified αvβ3 (P06756 31-889 limits assumed): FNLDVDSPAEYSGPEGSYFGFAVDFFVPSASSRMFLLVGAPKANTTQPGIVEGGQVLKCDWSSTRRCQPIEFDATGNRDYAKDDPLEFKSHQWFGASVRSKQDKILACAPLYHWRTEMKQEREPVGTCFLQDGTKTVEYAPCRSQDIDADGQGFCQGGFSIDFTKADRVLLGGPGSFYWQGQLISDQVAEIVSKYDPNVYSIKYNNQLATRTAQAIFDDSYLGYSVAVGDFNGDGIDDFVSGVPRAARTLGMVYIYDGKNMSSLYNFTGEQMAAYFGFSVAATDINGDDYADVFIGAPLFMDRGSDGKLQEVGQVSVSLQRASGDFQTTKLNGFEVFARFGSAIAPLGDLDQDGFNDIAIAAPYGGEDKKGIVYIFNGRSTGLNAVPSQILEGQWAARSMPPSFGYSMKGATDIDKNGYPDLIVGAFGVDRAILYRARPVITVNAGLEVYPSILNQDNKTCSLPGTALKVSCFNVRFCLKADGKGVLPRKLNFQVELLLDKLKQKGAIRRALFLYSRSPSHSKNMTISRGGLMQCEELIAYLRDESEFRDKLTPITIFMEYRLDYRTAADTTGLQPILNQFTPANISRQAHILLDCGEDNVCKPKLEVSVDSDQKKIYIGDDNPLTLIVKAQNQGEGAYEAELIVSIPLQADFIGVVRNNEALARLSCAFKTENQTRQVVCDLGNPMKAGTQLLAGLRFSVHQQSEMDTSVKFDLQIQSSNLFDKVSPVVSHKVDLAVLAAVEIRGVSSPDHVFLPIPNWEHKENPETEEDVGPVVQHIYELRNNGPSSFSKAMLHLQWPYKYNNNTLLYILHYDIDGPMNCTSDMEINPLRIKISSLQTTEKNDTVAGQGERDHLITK
Chain of purified αvβ3 (P06756 891-1048 limits assumed): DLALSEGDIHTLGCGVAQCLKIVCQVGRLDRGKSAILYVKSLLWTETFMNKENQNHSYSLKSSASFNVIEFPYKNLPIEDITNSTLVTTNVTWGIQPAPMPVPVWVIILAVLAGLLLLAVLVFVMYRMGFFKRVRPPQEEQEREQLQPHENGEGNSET
Chain of purified αvβ3 (P05106 27-788): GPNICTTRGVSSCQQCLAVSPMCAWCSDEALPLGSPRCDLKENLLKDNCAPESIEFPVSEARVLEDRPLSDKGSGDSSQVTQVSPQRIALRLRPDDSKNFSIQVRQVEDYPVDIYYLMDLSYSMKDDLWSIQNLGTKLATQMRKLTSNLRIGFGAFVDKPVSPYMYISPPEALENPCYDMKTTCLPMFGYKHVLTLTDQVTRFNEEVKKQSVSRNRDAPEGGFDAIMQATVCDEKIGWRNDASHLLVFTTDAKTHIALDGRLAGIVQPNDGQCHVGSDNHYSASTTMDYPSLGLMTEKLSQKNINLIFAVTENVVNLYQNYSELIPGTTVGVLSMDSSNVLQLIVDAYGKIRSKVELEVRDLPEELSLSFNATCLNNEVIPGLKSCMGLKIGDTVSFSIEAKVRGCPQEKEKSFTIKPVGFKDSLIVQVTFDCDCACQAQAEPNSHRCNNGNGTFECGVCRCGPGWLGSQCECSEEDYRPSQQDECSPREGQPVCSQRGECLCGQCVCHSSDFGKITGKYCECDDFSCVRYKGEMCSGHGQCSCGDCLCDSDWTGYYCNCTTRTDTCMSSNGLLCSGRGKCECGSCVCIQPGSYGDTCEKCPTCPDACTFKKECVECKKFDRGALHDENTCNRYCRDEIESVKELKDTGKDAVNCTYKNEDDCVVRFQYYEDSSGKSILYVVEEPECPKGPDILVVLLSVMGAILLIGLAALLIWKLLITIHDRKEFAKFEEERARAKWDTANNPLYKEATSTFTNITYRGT

- IC50: 105.4 ± 0.86 nM
SMILES: O=C(O)Cc1cc(I)c(Oc2cc(I)c(O)c(I)c2)c(I)c1 [Tetrac, tetraiodothyroacetic acid]
